Results as given in publication PMC11776921 (Journal of chemical theory and computation, 2024).

Target: GSK-3β (Homo sapiens, UniProt P49841)
Experiment: GSK-3 kinase Z'LYTE assay
Type: biochemical
Conditions: COB-136 versus COB-187; nitrogen in the pyridine ring replaced by carbon

Chain of GSK-3β (P49841 whole entry): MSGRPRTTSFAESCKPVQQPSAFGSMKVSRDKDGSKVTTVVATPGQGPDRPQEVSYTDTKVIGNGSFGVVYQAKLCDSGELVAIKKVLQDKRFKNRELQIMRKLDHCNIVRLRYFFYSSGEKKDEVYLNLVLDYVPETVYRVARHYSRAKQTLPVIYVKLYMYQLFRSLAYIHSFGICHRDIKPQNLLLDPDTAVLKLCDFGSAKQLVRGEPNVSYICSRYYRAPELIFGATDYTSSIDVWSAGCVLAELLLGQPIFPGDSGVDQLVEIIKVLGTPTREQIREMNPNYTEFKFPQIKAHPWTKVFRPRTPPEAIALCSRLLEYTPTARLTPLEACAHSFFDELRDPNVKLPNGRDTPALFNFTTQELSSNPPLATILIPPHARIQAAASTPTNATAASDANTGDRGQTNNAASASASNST

## OC1(c2ccccc2)CSC(=S)N1Cc1ccccc1 (stereo not shown) [COB-136]
  inhibitory activity (in words): dramatically impairs the inhibitory activity
